Results on eleven compounds are retold here after ChEMBL document CHEMBL1201862, “PubChem BioAssay data set” (2004).

Among the test systems are 786-0; ACHN; BT-549; EKVX; HL-60; HOP-92; IGROV-1; MCF7; NCI-H460; NCI-H522; OVCAR-4; OVCAR-5; SNB-75; SR; T47D; TK-10; U-251; UACC-257; UACC-62; DMS-273.
Common to all, as to test: DTP human tumour cell line panel, 48 h

Molecules are shown by their SMILES.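 All cell lines were grown in 96-well plates and treated with compound for 48 hours. At the GI50, growth is halved.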 The source made the active and inactive calls. Cut-off read from the data, not from the text of the source: active = GI50 up to about 1.1 µM and inactive = higher.

Regarding `C=C1c2nc3ccccc3n2C=C(c2ccc(OC)cc2)N1c1ccc(OCCN2CCCCC2)cc1`, the GI50 in the assay on 786-0 is 14.2 µM (inactive); with ACHN, 8.24 µM (inactive); with BT-549 it was 11.7 µM (inactive); in the assay with EKVX, 40.9 µM (inactive); with HL-60, 3.58 µM (inactive); in the assay with HOP-92, 28.1 µM (inactive). Moreover, the GI50 with IGROV-1 is 12.4 µM (inactive); in the assay on MCF7, 9.16 µM (inactive); in the assay with NCI-H460, 2.47 µM (inactive); in the assay with NCI-H522, > 100 µM (inactive); in the assay on OVCAR-4, 11.6 µM (inactive); with OVCAR-5, > 74.1 µM (inactive). Also, the GI50 is 50.5 µM (inactive) in the assay with SNB-75; 4.44 µM (inactive) in the assay on SR; 26.6 µM (inactive) with T47D; 14.8 µM (inactive) in the assay on TK-10; 7.59 µM (inactive) in the assay with U-251; 1.49 µM (inactive) with UACC-257. Besides, the GI50 in the assay on UACC-62 was 20.7 µM (inactive).
For the compound `CN(C)CCn1c(=O)c2ccc3c4c(nn3CCN(C)C)c3cc(N)ccc3n(c1=O)c24`, the GI50 in the assay with 786-0 is < 0.01 µM (active); in the assay on ACHN it was < 0.0161 µM (active); in the assay with BT-549, 0.127 µM (active); in the assay with EKVX, 0.0507 µM (active); in the assay on HL-60, 0.0279 µM (active); in the assay with HOP-92, 0.191 µM (active). Besides, the GI50 was < 0.015 µM (active) in the assay on IGROV-1; < 0.0207 µM (active) in the assay on MCF7; < 0.01 µM (active) in the assay with NCI-H460; 0.02 µM (active) with NCI-H522; 0.0165 µM (active) in the assay with OVCAR-4; < 0.027 µM (active) in the assay with OVCAR-5. In addition, the concentration for 50% growth inhibition (GI50) is < 0.01 µM (active) in the assay with SNB-75; < 0.0103 µM (active) in the assay with SR; 0.0312 µM (active) in the assay with T47D; 0.0513 µM (active) with TK-10; < 0.0111 µM (active) with U-251; 0.118 µM (active) with UACC-257. Also, the GI50 in the assay on UACC-62 was 0.0902 µM (active).
For the compound `Clc1ccccc1/C=C/c1ccnc2ccccc12`, the GI50 was 15.8 µM (inactive) with 786-0; 16.5 µM (inactive) with ACHN; 14.6 µM (inactive) with BT-549; 5.48 µM (inactive) in the assay with EKVX; 19.8 µM (inactive) in the assay on HL-60; 10.2 µM (inactive) with HOP-92. Besides, the GI50 in the assay on IGROV-1 is 15.8 µM (inactive); in the assay on MCF7 it was 11.6 µM (inactive); in the assay on NCI-H460, 16.2 µM (inactive); in the assay on NCI-H522, 14.3 µM (inactive); in the assay with OVCAR-4, 16.1 µM (inactive); in the assay on OVCAR-5, 19.9 µM (inactive). The GI50 with SNB-75 was 15.6 µM (inactive); with SR, 17 µM (inactive); with T47D it was 13.6 µM (inactive); in the assay on TK-10, 18 µM (inactive); with U-251, 16.8 µM (inactive); with UACC-257, 15.1 µM (inactive). In addition, in the assay on UACC-62, the GI50 was 15.2 µM (inactive).
As to `COc1ccc(-c2oc3cc(O)c(OC)c(O)c3c(=O)c2OC2OC(CO)C(O)C(O)C2O)cc1` (stereo not drawn), the GI50 is > 100 µM (inactive) in the assay on 786-0; 91.2 µM (inactive) in the assay on ACHN; > 100 µM (inactive) with DMS-273; > 100 µM (inactive) in the assay with EKVX; > 100 µM (inactive) in the assay on HL-60; > 100 µM (inactive) in the assay on HOP-92. Further, the GI50 was > 100 µM (inactive) with IGROV-1; 43.3 µM (inactive) in the assay with NCI-H460; > 100 µM (inactive) in the assay on OVCAR-4; > 100 µM (inactive) with SNB-75; > 100 µM (inactive) in the assay on TK-10; > 100 µM (inactive) with U-251. Further, the GI50 with UACC-62 is > 100 µM (inactive).
In the case of `CC1C(=O)O[B-]2(c3ccccc3)Oc3ccccc3C=[N+]12` (stereo not drawn), the GI50 was > 100 µM (inactive) in the assay on 786-0; > 100 µM (inactive) in the assay with ACHN; > 100 µM (inactive) in the assay on BT-549; > 100 µM (inactive) with EKVX; 96.4 µM (inactive) with HL-60; 31.3 µM (inactive) in the assay with HOP-92. Also, the GI50 in the assay with IGROV-1 was > 100 µM (inactive); with MCF7, 61.2 µM (inactive); in the assay with NCI-H460 it was > 100 µM (inactive); in the assay on NCI-H522, > 100 µM (inactive); in the assay with OVCAR-4, > 100 µM (inactive); with OVCAR-5, > 100 µM (inactive). The GI50 with SNB-75 was 72.1 µM (inactive); with SR, > 100 µM (inactive); in the assay on T47D, > 100 µM (inactive); in the assay on TK-10 it was > 100 µM (inactive); in the assay with U-251, > 100 µM (inactive); with UACC-257, > 100 µM (inactive). Moreover, in the assay with UACC-62, the GI50 was > 100 µM (inactive).
`CC1(O)CCC(C(C)(C)O)CC1` (stereo not drawn) [TERPIN]: the GI50 in the assay with 786-0 is > 100 µM (inactive); in the assay on ACHN, > 100 µM (inactive); with BT-549, > 100 µM (inactive); with EKVX it was 0.505 µM (active); in the assay with HL-60, > 100 µM (inactive); in the assay on HOP-92, > 100 µM (inactive). In addition, the GI50 in the assay on IGROV-1 was 16.1 µM (inactive); in the assay with MCF7, > 100 µM (inactive); in the assay with NCI-H460, > 100 µM (inactive); in the assay with NCI-H522, > 100 µM (inactive); in the assay on OVCAR-4, > 100 µM (inactive); with OVCAR-5, > 100 µM (inactive). The GI50 with SNB-75, in the assay on SR, with T47D, in the assay with TK-10, in the assay on U-251 and in the assay on UACC-257 was > 100 µM (inactive) throughout. Besides, the GI50 in the assay with UACC-62 was > 100 µM (inactive).
Turning to `C(#CP(c1ccccc1)c1ccccc1)P(C#CP(c1ccccc1)c1ccccc1)c1ccccc1`, the GI50 in the assay with 786-0, with ACHN, in the assay on BT-549, in the assay with EKVX, in the assay with HL-60 and with HOP-92 was > 100 µM (inactive) each time. Further, the GI50 was > 100 µM (inactive) in the assay with IGROV-1; > 100 µM (inactive) in the assay on MCF7; > 100 µM (inactive) with NCI-H460; > 100 µM (inactive) with NCI-H522; > 100 µM (inactive) in the assay on OVCAR-4; 1.63 µM (inactive) in the assay on OVCAR-5. Moreover, the GI50 with SNB-75, with SR, in the assay with T47D, in the assay on TK-10, with U-251 and in the assay with UACC-257 was > 100 µM (inactive) each time. The GI50 in the assay on UACC-62 was > 100 µM (inactive).
Take `N#Cc1c(O)c(/C=N/c2ccc(Cl)cc2)c(=O)n2c1[nH]c1ccccc12`: the GI50 in the assay on 786-0, with ACHN, in the assay with BT-549, in the assay with EKVX, with HL-60 and in the assay with HOP-92 was > 100 µM (inactive) each time. The GI50 with IGROV-1, in the assay with MCF7, with NCI-H460, in the assay on NCI-H522, in the assay with OVCAR-4 and in the assay with OVCAR-5 was > 100 µM (inactive) in each case. Besides, the GI50 in the assay with SNB-75, with SR, with T47D, in the assay with TK-10, in the assay with U-251 and in the assay with UACC-257 was > 100 µM (inactive) throughout. For the same compound, in the assay with UACC-62, the GI50 was > 100 µM (inactive).
With `O=C(O)CC1(C(=O)O)CCCCC1`, the GI50 in the assay with 786-0, with ACHN, in the assay on BT-549, in the assay on EKVX, in the assay on HL-60 and with HOP-92 was > 100 µM (inactive) each time. Moreover, the GI50 in the assay with IGROV-1, with MCF7, in the assay on NCI-H460, in the assay on NCI-H522, with OVCAR-4 and in the assay with OVCAR-5 was > 100 µM (inactive) each time. Moreover, the GI50 in the assay on SNB-75, in the assay on SR, in the assay with T47D, with TK-10, in the assay with U-251 and in the assay with UACC-257 was > 100 µM (inactive) throughout. The GI50 with UACC-62 is > 100 µM (inactive).
As for `C/C(=N\NC(=S)Nc1ccc(C)cc1)c1nc2cccnc2[nH]1`, the GI50 with 786-0 was 1.6 µM (inactive); with ACHN, 1.44 µM (inactive); with BT-549 it was 1.23 µM (inactive); with EKVX, 0.61 µM (active); in the assay with HL-60, 2.22 µM (inactive); in the assay with HOP-92 it was 6.38 µM (inactive). Moreover, the GI50 is 2.31 µM (inactive) with IGROV-1; 0.721 µM (active) with MCF7; 1.32 µM (inactive) with NCI-H460; 0.986 µM (active) in the assay on NCI-H522; 0.25 µM (active) in the assay on OVCAR-4; 1.95 µM (inactive) in the assay with OVCAR-5. Also, the GI50 in the assay with SNB-75 is 5.77 µM (inactive); in the assay on SR, 0.849 µM (active); in the assay with T47D, 0.406 µM (active); with TK-10, 2.67 µM (inactive); in the assay with U-251, 1.45 µM (inactive); in the assay on UACC-257, 2.38 µM (inactive). Further, the GI50 in the assay with UACC-62 is 2.81 µM (inactive).
As to `CC(=O)NC1=C(OS(=O)(=O)c2ccc(C)cc2)CN(C)C1=O`, the GI50 in the assay on 786-0 was 3.79 µM (inactive); in the assay with ACHN, 3.32 µM (inactive); in the assay on BT-549 it was 3.09 µM (inactive); in the assay on EKVX, 4.84 µM (inactive); with HL-60, 2.83 µM (inactive); with HOP-92, 2.84 µM (inactive). Moreover, the GI50 is 3.39 µM (inactive) in the assay with IGROV-1; 2.89 µM (inactive) in the assay with MCF7; 2.37 µM (inactive) in the assay with NCI-H460; 2.82 µM (inactive) in the assay with NCI-H522; 6.27 µM (inactive) in the assay on OVCAR-4; 16.7 µM (inactive) with OVCAR-5. Besides, the GI50 in the assay with SNB-75 is 4.31 µM (inactive); in the assay on SR it was 4.6 µM (inactive); with T47D it was 2.12 µM (inactive); in the assay with TK-10, 1.94 µM (inactive); in the assay on U-251, 2.7 µM (inactive); in the assay with UACC-257, 2.49 µM (inactive). In the assay on UACC-62, the GI50 was 6.79 µM (inactive).
